Experimental data: patent US5705649A, “Protein staining compositions and methods” (Promega Corporation, priority 1995, dated 1998)

Legend:
[1] = tested on: Promega Mid Range Molecular Weight Markers; test: Rapid enhancement of the staining of proteins with low residual color in the gel
Protocol: In order to develop such a method, several 10% SDS-PAGE gels made as described in Example 5 were made and loaded with samples made as described therein with the following changes: the sample loading size was reduced to 5 μl; and the solutions were made to contain 1.0, 0.50, 0.25, and 0.125 μg of each protein band of Promega Mid Range Molecular Weight Markers in 5 μl of the sample. Each gel was loaded such that duplicate panels of samples containing the various concentrations of protein were present in 4 consecutive lanes. The gels were run as described above and the gel was cut between the duplicate sample panels. A gel segment containing one panel was placed in each of the following solutions: 30 ml of 2% glacial acetic acid (A); 30 ml of 2% glacial acetic acid in 10% methanol (B); 2% glacial acetic acid in 20% methanol (C); 2% glacial acetic acid in 30% methanol (D); 30 ml of water (E); 30 ml of 10% methanol (F); 30 ml of 20% methanol (G); and 30 ml of 30% methanol (H). The solutions were incubated with the gel segments for 10 minutes at room temperature and gently rotated at 40 rpm to prevent settling of the gel segments in the containers. […]
Protocols using other dyes that have been developed for the sensitive detection of protein sometimes employ the incubation of the gel in solutions containing the stain followed by incubation of the gel in solutions lacking the stain. In order to determine if such a protocol could be used to allow even lower levels of protein to be detected using Promega Green 1, the following study was performed. […]

bovine serum albumin = test: Quantitation of proteins separated by SDS-PAGE (dye extracted from excised bands); details: 66 Kd
Protocol: (§1) The samples used were prepared with Promega Mid-Range Molecular Weight Markers solution (Promega Corp., Madison, Wis., USA, Catalog No. V5231) (referred to hereinafter as "Promega Mid-Range [Molecular Weight] Markers or Standards") diluted into Sample Buffer. Promega Mid-Range Molecular Weight Markers is a solution, at about 0.5 mg/ml, of each of the following proteins as a molecular weight standard: phosphorylase B (apparent molecular weight: 97,400 daltons ("d")), bovine serum albumin (apparent molecular weight: 66,200 d), glutamate dehydrogenase (apparent molecular weight: 55,000 d), ovalbumin (apparent molecular weight: 42,700 d), aldolase (apparent molecular weight: 40,000 d), carbonic anhydrase (apparent molecular weight: 31,000 d), soybean trypsin inhibitor (apparent molecular weight: 21,500 d), and lysozyme (apparent molecular weight: 14,400 d). […] The samples were heated to 95° C. for 10 minutes with occasional vortex treatment in 1.5 ml Eppendorf centrifuge tubes and then centrifuged in an Eppendorf centrifuge for 20 seconds to ensure that the protein in the sample was denatured and well mixed.
(§2) A 10% SDS-PAGE gel was made as described in the Example 5. Promega Mid-Range Molecular Weight Standards were diluted into loading buffer to produce solutions containing 2.0, 1.0, 0.5, and 0.25 μg of protein per band in 5 μl of solution. Duplicate 5 μl solutions of each of these solutions were loaded into 1 of the 10 sample wells in the gel after the solutions were heated at 95° C. for 10 minutes. The gel was then electrophoresed at 160 V until the running dye just eluted from the bottom of the gel. The gel was destained, and signal from stained protein enhanced, for 90 minutes in 30% methanol, 4% acetic acid.
(§3) One of the pair of duplicate bands for the 97.4, 66.2, 55.0 and 42.7 kilodalton standards from the lanes containing 2.0, 1.0, 0.5, and 0.25 μg of protein per band were excised with a razor blade as were two control gel segments from regions of the gel not containing protein. The excised segments were placed in individual 1.5 ml Eppendorf tubes containing 2% SDS and allowed to incubate at room temperature for 72 hours. After this time, the solutions were removed from the extracted segments and acetic acid was added to 2% (v/v) final concentration. The absorption of the solutions at […] was then measured.

glutamate dehydrogenase = test: as above; details: 55 Kd
Protocol: as §1, §2, §3

ovalbumin = test: as above; details: 43 Kd
Protocol: as §1, §2, §3

phosphorylase B = test: as above; details: 97 kD
Protocol: as §1, §2, §3

In the case of `CCCCCCCC(=O)N(c1ccc(OCC)cc1)c1ccc(C(=C2C=CC(=[N+](CC)Cc3cccc(S(=O)(=O)[O-])c3)C=C2)c2ccc(N(CC)Cc3cccc(S(=O)(=O)O)c3)cc2)cc1` [Promega Green 1], the “amount of protein in a band that can be detected” value ([1]; methanol/acetic acid solutions A-H, 10 min then 60 min) is reported as “less than 125 ng”, the “lowest protein per band visible” value ([1]; post-incubation with dye 1:5000 and 1:10,000 in 30-50% methanol, then without dye) is reported as 62.5 ng and the background staining ([1]; solution set H (30% methanol, then 2% acetic acid in 30% methanol)) is reported as “very little background staining remaining”. For the same compound, the “Absorbance at 630 nm” value (bovine serum albumin; 0.25 μg/band) was “.052”, the “Absorbance at 630 nm” value (bovine serum albumin; 0.50 μg/band) was “.074” and the “Absorbance at 630 nm” value (bovine serum albumin; 1.00 μg/band) was “.138”. The “Absorbance at 630 nm” value (bovine serum albumin; 2.00 μg/band) was “.192”, the “Absorbance at 630 nm” value (glutamate dehydrogenase; 0.25 μg/band) was “.053” and the “Absorbance at 630 nm” value (glutamate dehydrogenase; 0.50 μg/band) was “.063”. The “Absorbance at 630 nm” value (glutamate dehydrogenase; 1.00 μg/band) was “.105”, the “Absorbance at 630 nm” value (glutamate dehydrogenase; 2.00 μg/band) was “.138” and the “Absorbance at 630 nm” value (ovalbumin; 0.25 μg/band) was “.042”. The “Absorbance at 630 nm” value (ovalbumin; 0.50 μg/band) was “.064”, the “Absorbance at 630 nm” value (ovalbumin; 1.00 μg/band) was “.126” and the “Absorbance at 630 nm” value (ovalbumin; 2.00 μg/band) was “.195”. For the same compound, the “Absorbance at 630 nm” value (phosphorylase B; 0.25 μg/band) was “.032”, the “Absorbance at 630 nm” value (phosphorylase B; 0.50 μg/band) was “.053” and the “Absorbance at 630 nm” value (phosphorylase B; 1.00 μg/band) was “.083”. For the same compound, the “Absorbance at 630 nm” value (phosphorylase B; 2.00 μg/band) was “.128”.
